Reference: patent US12209144B2, “Cyclic peptides as proprotein convertase subtilisin/kexin type 9 (PCSK9) inhibitors for the treatment of metabolic disorders” (Novartis AG, priority 2018, dated 2025)
pIC50: −log10 of the molar value. Bridge positions count the residues as written; N and C are the ends. Square brackets hold non-standard residues; d marks the D form. Peptide text beside a SMILES is read from it. ξ: configuration not given here. Phe(3,4-Cl2) = N[C@@H](Cc1ccc(Cl)c(Cl)c1)C(=O)O; Bip = N[C@@H](Cc1ccc(-c2ccccc2)cc1)C(=O)O; Phe(4-Cl) = N[C@@H](Cc1ccc(Cl)cc1)C(=O)O; hSer = N[C@@H](CCO)C(=O)O; NMeA = CN[C@@H](C)C(=O)O; ξD = NC(CC(=O)O)C(=O)O

Molecular target: human PCSK9 (Homo sapiens, UniProt Q8NBP7)
Sequence (Q8NBP7 153-692): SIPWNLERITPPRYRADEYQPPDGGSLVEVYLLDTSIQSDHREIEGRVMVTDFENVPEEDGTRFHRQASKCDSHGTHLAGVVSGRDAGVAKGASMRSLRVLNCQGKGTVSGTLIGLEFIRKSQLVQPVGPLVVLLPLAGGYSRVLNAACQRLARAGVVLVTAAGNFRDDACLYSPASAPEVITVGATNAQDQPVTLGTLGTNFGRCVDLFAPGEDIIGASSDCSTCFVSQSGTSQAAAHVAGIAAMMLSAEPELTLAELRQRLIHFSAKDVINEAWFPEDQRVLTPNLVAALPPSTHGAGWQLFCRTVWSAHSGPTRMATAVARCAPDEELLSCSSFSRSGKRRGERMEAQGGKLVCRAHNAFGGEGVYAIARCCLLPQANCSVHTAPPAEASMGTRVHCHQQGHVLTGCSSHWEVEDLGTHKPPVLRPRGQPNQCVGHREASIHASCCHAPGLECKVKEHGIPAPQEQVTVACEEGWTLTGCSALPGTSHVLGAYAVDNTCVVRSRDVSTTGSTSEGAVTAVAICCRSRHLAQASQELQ
Sequence (Q8NBP7 31-152 partner limits assumed): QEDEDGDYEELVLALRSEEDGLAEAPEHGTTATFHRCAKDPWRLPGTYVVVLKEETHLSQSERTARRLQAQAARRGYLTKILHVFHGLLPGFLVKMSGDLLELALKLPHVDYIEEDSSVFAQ
Assay: PCSK9 ligand binding assay (TR-FRET): interference with binding of human PCSK9 to human LDLR
Settings: for Maximum % inhibition: PCSK9 FRET assay, efficacy (Amax), 0% = DMSO, 100% = 1 uM unlabeled human PCSK9
Protocol: The activity of cyclic polypeptides according to the disclosure as PCSK9 can be assessed using a time resolved fluorescence resonance energy transfer (TR-FRET) assay. This time resolved fluorescence resonance energy transfer (TR-FRET) assay measures the ability of a cyclic polypeptides of the disclosure to interfere with the binding of human PCSK9 to human LDLR, providing measures of both potency (IC50) and efficacy (Amax).
Solutions of varying concentrations are prepared by diluting a cyclic polypeptide of the disclosure in dimethylsulfoxide (DMSO) and the resulting solutions are pipetted into a plate. DMSO is used as a negative control. An intermediate plate is prepared in by transferring a known amount of each polypeptide solution and of the control from the compound plate into a corresponding well containing assay buffer and mixing thoroughly. A third plate is then prepared to be used for the assay by adding Human PCSK9 Alexa Fluor 647, followed by a known amount of each solution from the intermediate plate. Unlabeled human PCSK9 in assay buffer containing DMSO is used as a positive control for the assay. Following incubation, Human LDLR extracellular domain-Europium Kryptate is added to each well of the assay plate and the resulting mixture is incubated for an additional period of time. The TR-FRET signal is measured and the FRET ratio (FRET/Europium) is used to calculate the IC50 and Amax of the cyclic polypeptides.
The PCSK9 binding of the cyclic polypeptides of the disclosure were measured using a time resolved fluorescence resonance energy transfer (TR-FRET) assay. This time resolved fluorescence resonance energy transfer (TR-FRET) assay measures the ability of a cyclic polypeptide of the disclosure to interfere with the binding of human PCSK9 to human LDLR, providing measures of both potency (IC50) and efficacy (Amax).
• Human PCSK9 • Human PCSK9 Alexa Fluor 647 • Human LDLR extracellular domain-Europium Kryptate • Proxi plate-low volume assay plate (PerkinElmer #6008280) • Greiner V-bottom (Greiner BioOne #781280) • Assay Buffer • 20 mM HEPES, pH 7.5 • 150 mM NaCl • 1 mM CaCl2 • 0.01% v/v Tween20 • 0.01% w/v BSA
A master compound plate was prepared in a Greiner V bottom plate by diluting cyclic polypeptides of the disclosure in dimethylsulfoxide to the correct concentration for the desired top concentration based on the desired final concentration: for a 30 uM final concentration the master plate concentration is 1.5 mM (68 uL DMSO+12 uL 10 mM of a cyclic polypeptide of the disclosure), for a 10 uM final concentration the master plate concentration is 0.5 mM (76 uL DMSO+4 uL 10 mM of a cyclic polypeptide of the disclosure), for a 3 uM final concentration the master plate concentration is 150 uM (69 uL DMSO+1 uL 10 mM a cyclic peptide of the disclosure). These solutions were pipetted into columns 1 and 11 of the compound plate. Threefold serial dilutions were generated in columns 2-10 and 12-20 of the compound plate by transferring 10 uL into 20 μL of DMSO. Columns 21 and 22 of the compound plate were negative controls containing DMSO alone.
An intermediate plate was generated in a Greiner V bottom plate by transferring 8 uL from each well of the master plate into a corresponding well containing 92 μL of assay buffer and mixing thoroughly.
A Proxi plate-low volume assay plate was used for the assay. To all wells of the plate was added 10 μL of 16 nM Human PCSK9 Alexa Fluor 647, followed by 5 uL from the intermediate plate. […] Following a 30 minute incubation, 5 μL of 4 nM Human LDLR extracellular domain-Europium Kryptate was added and the mixture was incubated for an additional 2 hours.
The TR-FRET signal was measured on an EnVision or PheraStar instrument with a […] delay, 330 nm excitation and 665 nm emission (FRET), and 330 nm excitation and 615 nm (Europium). The FRET ratio (FRET/Europium) was used for calculations. […]

Row | Compound | Maximum % inhibition [%] | pIC50 (TR-FRET, Human PCSK9 Alexa Fluor 647 and Human LDLR extracellular domain-Europium Kryptate)
1 | CC(C)[C@@H]1NC(=O)[C@H](Cc2ccccc2)NC(=O)CSC[C@@H](C(=O)NCC(N)=O)NC(=O)[C@@H]2CCCN2C(=O)[C@H](C)NC(=O)[C@H](CCCCN)NC(=O)[C@H](C)N(C)C(=O)[C@H](Cc2ccc(-c3ccccc3)cc2)NC(=O)[C@H](C)N(C)C(=O)[C@H](Cc2ccccc2)NC(=O)[C@H]([C@@H](C)O)NC(=O)[C@H]([C@@H](C)O)NC(=O)[C@H](CC(N)=O)NC1=O [Example 1-23, Ac*-F-V-N-T-T-F-(N-Me)A-B-(N-Me)A-K-A-P-C*-G-NH2] ({CH2CO}-FVNTTF[NMeA][Bip][NMeA]KAPCG-NH2; thioether N-13) | 36 | 
2 | CC(C)[C@@H]1NC(=O)[C@H](Cc2ccccc2)NC(=O)CSC[C@@H](C(=O)NCC(N)=O)NC(=O)[C@@H]2CCCN2C(=O)[C@H](C)NC(=O)[C@H](CCC(=O)O)NC(=O)[C@H](C)N(C)C(=O)[C@H](Cc2ccc(-c3ccccc3)cc2)NC(=O)[C@H](C)N(C)C(=O)[C@H](Cc2ccccc2)NC(=O)[C@H]([C@@H](C)O)NC(=O)[C@H]([C@@H](C)O)NC(=O)[C@H](CO)NC1=O [Example 1-24, Ac*-F-V-S-T-T-F-(N-Me)A-B-(N-Me)A-E-A-P-C*-G-NH2] ({CH2CO}-FVSTTF[NMeA][Bip][NMeA]EAPCG-NH2; thioether N-13) | 70 | 
3 | CC(C)[C@@H]1NC(=O)[C@H](Cc2ccccc2)NC(=O)CSC[C@@H](C(=O)NCC(N)=O)NC(=O)[C@@H]2CCCN2C(=O)[C@H](CO)NC(=O)[C@H](CCC(=O)O)NC(=O)[C@H](C)N(C)C(=O)[C@H](Cc2ccc(-c3ccccc3)cc2)NC(=O)[C@H](C)N(C)C(=O)[C@H](Cc2ccc(-c3ccccc3)cc2)NC(=O)[C@H]([C@@H](C)O)NC(=O)[C@H]([C@@H](C)O)NC(=O)[C@H](CO)NC1=O [Example 1-25, Ac*-F-V-S-T-T-B-(N-Me)A-B-(N-Me)A-E-S-P-C*-G-NH2] ({CH2CO}-FVSTT[Bip][NMeA][Bip][NMeA]ESPCG-NH2; thioether N-13) | 68 | 
4 | CC(C)[C@@H]1NC(=O)[C@H](Cc2ccccc2)NC(=O)CSC[C@@H](C(=O)NCC(N)=O)NC(=O)[C@@H]2CCCN2C(=O)[C@H](CO)NC(=O)[C@H](CCC(=O)O)NC(=O)[C@H](C)N(C)C(=O)[C@H](Cc2ccc(Cl)c(Cl)c2)NC(=O)[C@H](C)N(C)C(=O)[C@H](Cc2ccc(-c3ccccc3)cc2)NC(=O)[C@H]([C@@H](C)O)NC(=O)[C@H]([C@@H](C)O)NC(=O)[C@H](CC(=O)O)NC1=O [Example 1-26, Ac*-F-V-D-T-T-B-(N-Me)A-(3,4-diCl)F-(N-Me)A-E-S-P-C*-G-NH2] ({CH2CO}-FVDTT[Bip][NMeA][Phe(3,4-Cl2)][NMeA]ESPCG-NH2; thioether N-13) | 84 | 
5 | C[C@@H]1NC(=O)[C@H](C)N(C)C(=O)[C@H](Cc2ccc(-c3ccccc3)cc2)NC(=O)[C@H](C)N(C)C(=O)[C@H](Cc2ccccc2)NC(=O)[C@H]([C@@H](C)O)NC(=O)[C@H]([C@@H](C)O)NC(=O)[C@H](CC(N)=O)NC(=O)[C@H](CCC(=O)O)NC(=O)[C@H](Cc2ccccc2)NC(=O)CSC[C@@H](C(=O)NCC(N)=O)NC(=O)[C@@H]2CCCN2C(=O)[C@H](CO)NC1=O [Example 1-27, Ac*-F-E-N-T-T-F-(N-Me)A-B-(N-Me)A-A-S-P-C*-G-NH2] ({CH2CO}-FENTTF[NMeA][Bip][NMeA]ASPCG-NH2; thioether N-13) | 55 | 6.39

Further lines, results first:

Row | Maximum % inhibition [%] | pIC50 (TR-FRET, Human PCSK9 Alexa Fluor 647 and Human LDLR extracellular domain-Europium Kryptate) | Compound
6 | 50 |  | CC(C)[C@@H]1NC(=O)[C@H](Cc2ccccc2)NC(=O)CSC[C@@H](C(N)=O)NC(=O)[C@@H]2CCCN2C(=O)[C@H](C)NC(=O)[C@@H]2CCCN2C(=O)[C@H](C)N(C)C(=O)[C@H](Cc2ccc(Cl)cc2)NC(=O)[C@H](C)N(C)C(=O)[C@H](Cc2ccccc2)NC(=O)[C@H]([C@@H](C)O)NC(=O)[C@H]([C@@H](C)O)NC(=O)[C@@H]2CCCN2C1=O [Example 2-1, (6S,8aS,14S,17S,20S,23S,26S,29S,31aS,37S,40S,46R,48aS)-23,40-dibenzyl-17-(4-chlorobenzyl)-26,29-bis((R)-1-hydroxyethyl)-37-isopropyl-6,14,15,20,21-pentamethyl-5,8,13,16,19,22,25,28,31,36,39,42,48-tridecaoxohexatetracontahydro-13H-tripyrrolo[1,2-e1:1′,2′-j:1″,2″-k1][1]thia[4,7,10,13,16,19,22,25,28,31,34,37,40]tridecaazacyclodo-tetracontine-46-carboxamide] ({CH2CO}-FVPTTF[NMeA][Phe(4-Cl)][NMeA]PAPC-NH2; thioether N-13)
7 | 72 |  | CC(C)[C@@H]1NC(=O)[C@H](Cc2ccccc2)NC(=O)CSC[C@@H](C(N)=O)NC(=O)[C@@H]2CCCN2C(=O)[C@H](C)NC(=O)C(CC(=O)O)NC(=O)[C@H](C)N(C)C(=O)[C@H](Cc2ccc(Cl)cc2)NC(=O)[C@H](C)N(C)C(=O)[C@H](Cc2ccccc2)NC(=O)[C@H]([C@@H](C)O)NC(=O)[C@H]([C@@H](C)O)NC(=O)[C@@H]2CCCN2C1=O (stereo partly drawn) [Example 2-2, Ac*-F-V-P-T-T-F-(N-Me)A-(p-Cl)F-(N-Me)A-D-A-P-C*-NH2] ({CH2CO}-FVPTTF[NMeA][Phe(4-Cl)][NMeA][ξD]APC-NH2; thioether N-13)
8 | 75 |  | CC(C)[C@@H]1NC(=O)[C@H](Cc2ccccc2)NC(=O)CSC[C@@H](C(N)=O)NC(=O)[C@@H]2CCCN2C(=O)[C@H](C)NC(=O)C(CC(=O)O)NC(=O)[C@H](C)N(C)C(=O)[C@H](Cc2ccc(Cl)cc2)NC(=O)[C@H](C)N(C)C(=O)[C@H](Cc2ccccc2)NC(=O)[C@H]([C@@H](C)O)NC(=O)[C@H]([C@@H](C)O)NC(=O)[C@H](CCO)NC1=O (stereo partly drawn) [Example 2-3, Ac*-F-V-HomoSer-T-T-F-(N-Me)A-(p-Cl)F-(N-Me)A-D-A-P-C*-NH2] ({CH2CO}-FV[hSer]TTF[NMeA][Phe(4-Cl)][NMeA][ξD]APC-NH2; thioether N-13)
9 | 28 |  | CC(C)[C@@H]1NC(=O)[C@H](Cc2ccccc2)NC(=O)CSC[C@@H](C(N)=O)NC(=O)[C@@H]2CCCN2C(=O)[C@H](CCCNC(=N)N)NC(=O)[C@H](CC(=O)O)NC(=O)[C@H](C)N(C)C(=O)[C@H](Cc2ccc(-c3ccccc3)cc2)NC(=O)[C@H](C)N(C)C(=O)[C@H](Cc2ccc(-c3ccccc3)cc2)NC(=O)[C@H]([C@@H](C)O)NC(=O)[C@H]([C@@H](C)O)NC(=O)[C@H](CO)NC1=O [Example 2-4, Ac*-F-V-S-T-T-B-(N-Me)A-B-(N-Me)A-D-R-P-C*-NH2] ({CH2CO}-FVSTT[Bip][NMeA][Bip][NMeA]DRPC-NH2; thioether N-13)
10 | 46 |  | CC(C)[C@@H]1NC(=O)[C@H](Cc2ccccc2)NC(=O)CSC[C@@H](C(N)=O)NC(=O)[C@@H]2CCCN2C(=O)[C@H](C)NC(=O)[C@H](CC(N)=O)NC(=O)[C@H](C)N(C)C(=O)[C@H](Cc2ccc(Cl)cc2)NC(=O)[C@H](C)N(C)C(=O)[C@H](Cc2ccccc2)NC(=O)[C@H]([C@@H](C)O)NC(=O)[C@H]([C@@H](C)O)NC(=O)[C@H](C)NC1=O [Example 2-5, Ac*-F-V-A-T-T-F-(N-Me)A-(p-Cl)F-(N-Me)A-N-A-P-C*-NH2] ({CH2CO}-FVATTF[NMeA][Phe(4-Cl)][NMeA]NAPC-NH2; thioether N-13)
11 | 83 |  | CC(C)[C@@H]1NC(=O)[C@H]([C@@H](C)O)NC(=O)[C@H]([C@@H](C)O)NC(=O)[C@@H]2CCCN2C(=O)[C@H](C(C)C)NC(=O)[C@H](Cc2ccccc2)NC(=O)CSC[C@@H](C(N)=O)NC(=O)[C@@H]2CCCN2C(=O)[C@H](C)NC(=O)[C@H](CCC(=O)O)NC(=O)[C@H](C)N(C)C(=O)[C@H](Cc2ccc(Cl)cc2)NC(=O)[C@H](C)N(C)C1=O [Example 2-6, Ac*-F-V-P-T-T-V-(N-Me)A-(p-Cl)F-(N-Me)A-E-A-P-C*-NH2] ({CH2CO}-FVPTTV[NMeA][Phe(4-Cl)][NMeA]EAPC-NH2; thioether N-13)
